The source of these data is US11802285B2, “Cytotoxic T cell response modifiers” (DEUTSCHES KREBSFORSCHUNGSZENTRUM STIFTUNG DES ÖFFENTLICHEN …, priority 2013, dated 2023).

The series deals with MCF7 breast cancer cells. The experiment in a line: Luc-CTL assay (luciferase-based readout of CTL-mediated tumor cell lysis, with viability control without CTLs). As to conditions: for T cell mediated lysis of luciferase transfected MCF7 breast cancer target cells (reduction of luciferase activity): co-culture with survivin specific CTL clone, deconvoluted siRNA pool (FIG. 5A, 10A); for viability of luciferase transfected MCF7 breast cancer cells: in the absence of T cells (FIG. 5B, 10B). An excerpt:
In order to comprehensively identify immune checkpoint regulators in an unbiased manner, we harnessed a previously described approach to measure tumor-specific T-cell cytotoxicity which is based on quantifying residual cell-associated luciferase expression following exposure of Luc-expressing cancer cells with CTLs (Brown et al., 2005). We adapted and extended aforementioned approach for high-throughput RNAi screening purposes and termed it ‘Luc-CTL’ assay. Briefly, the screening experiment was set up as follows: In total, three RNAi screens were performed in duplicate and reverse transfection of cells with siRNA pools was performed by delivering 15 μl of RPMI (Invitrogen) containing 0.05 μl of RNAiMAX (Invitrogen). After 30 min of incubation at room temperature, 3000 MCF7 cells (screen 1: MCF7 stably expressing luciferase, screen 2 and 3: wild-type MCF7 cells) in 30 μl of DMEM medium (Invitrogen) supplemented with 10% FBS (Invitrogen) were added to the siRNA transfection mix. Plates were then incubated at 37° C., 5% CO2. 24 h later, cells were either transiently transfected with a luciferase expression plasmid (screen 2) using TransIT-LT1 transfection reagent (Mirius Bio LLC, Madison, USA) according to the manufacturer's instructions or not (screen 1 and screen 3). 72 h post siRNA transfection cancer cells were either challenged with CTLs and anti-CD3×anti-EpCAM bi-specific antibody (screen 1 and screen 2; condition with addition of CTLs) or not (screen 1 and screen 2; condition without addition of CTLs and screen 3). […]
Plate reader data from RNAi screens were statistically analyzed using the cellHTS2 package in R/Bioconductor (Boutros et al., 2006). […] For screen 1 and screen 2, scores from both conditions, i.e. addition of CTLs and without addition of CTLs, were further quantile normalized against each other using the aroma.light package in R. Differential scores were calculated by subtracting quantile normalized scores without addition of CTLs from scores derived with addition of CTLs. In order to robustly identify genes that positively modulate CTL mediated cytotoxicity and to avoid biases potentially introduced by employing CTLs from different donors and employing genetically engineered as well as unmodified MCF7 cells, the 150 top-ranking genes as evaluated by the differential score were extracted for the independent screens 1 and 2 and the overlap between candidate lists was determined. […] Thereby, siRNAs generally affecting cell viability, as determined by intracellular ATP levels, could be excluded.
In order to identify tumor-associated genes that inhibit cell killing by cytotoxic T lymphocytes (CTL), we adapted a luciferase-based readout assay, henceforth referred to as Luc-CTL assay (FIG. 1A). […]

As for “TAS2R3 siRNA s3: TAS2R3 siRNA, sequence CCGCAUCUCUGAUCAAUGA, SEQ ID NO: 3 (listed as RNA, chemistry not given here)”, the “T cell mediated lysis of luciferase transfected MCF7 breast cancer target cells (reduction of luciferase activity)” value was “significantly increase” and the “viability of luciferase transfected MCF7 breast cancer cells” value is “no impact”.

On to “TAS2R3 siRNA s4: TAS2R3 siRNA, sequence GCAGACAUUUGUAGUGAUG, SEQ ID NO: 4 (listed as RNA, chemistry not given here)”, for which the “T cell mediated lysis of luciferase transfected MCF7 breast cancer target cells (reduction of luciferase activity)” value is reported as “significantly increase” and the “viability of luciferase transfected MCF7 breast cancer cells” value is “no impact”.
